# Where “and” joins values, the source holds several entries; their conditions need not be identical. Equal values may be shown once. Where a name gives a salt, the structure may show the parent alone. Read-outs that look alike come from different tables or passages of the source. Marks after values point to notes of the source that are not given here.
# Tested on: Human Breast Adenocarcinoma Cell Line MDA-MB-231
# Assay: Drug cytotoxicity testing (viable cell count, trypan blue exclusion, cell growth inhibition)
# Format: cell-based
# Conditions: for IC50: calculated from three concentrations, read-out: IC50 mol/L (a); for cell growth inhibition reached on increase of the concentration, in (B): sodium salt, range 10^-9 to 10^-7 M, dilution in normal saline (B)
# Procedure: MDA-MB-231 cells were propagated in MEM culture medium with 2 mM L-glutamine, 10% heat-inactivated fetal bovine serum (FBS) and antibiotics. DU 145 cells were cultured in MEM culture medium containing 2 mM L-glutamine, 1 mM sodium pyruvate, 10% FBS and antibiotics. SKOV-3 cells were cultured in McCoy's 5A culture medium, supplemented with 1,5 mM L-glutamine, 10% FBS and antibiotics. A549 cells were cultured in Ham's F-12 culture medium with 1 mM L-glutamine, 10% FBS and antibiotics. All media and supplements were purchased from Sigma-Aldrich (St.Louis, MO, USA). Cell propagation of all lines was carried out in Falcon™ 25 cm^2 cultivation flasks (Becton Dickinson Labware).
# Drug cytotoxicity testing was carried out with using Falcon™ 96-well cultivation plates for adherent cells (Becton Dickinson Labware). These plates were seeded by cells either at 12 × 10^3 MDA-MB-231 cells/well, or at 12 × 10^3 DU 145 cells/well, or at 14 × 10^3 SKOV-3 cells/well, or at 10 × 10^3 A549 cells/well in a volume of 200 µL/well.
# The cell cultures in cultivation plates were allowed to adhere for 24 hour of incubation. On day 1 after cell seeding, 2 µL solutions of the drugs to be tested in medium with 5% FBS was added to the cultures. In the control cultures, 2 µL of medium with 5% FBS was added as solvent control. The cells were incubated for 2 consecutive days. At the end of the incubation period adherent cells were detached by trypsinization and the number of viable cells was counted using trypan blue exclusion test and a hemocytometer. All data were derived from an average of three determinations each in six replicates. The results were expressed as mean cell number ± SE and the differences between control and test series evaluated by means of Student's t-test. The drug cytotoxicity was evaluated based on the extent of cell growth inhibition. The cell growth inhibition of the tested drugs was calculated as follows: Cell growth inhibition,% = (Control-TestSeries)/(Control) × 100 [formula]
# In the case of comparative evaluation of cytotoxicity of the inventive compounds themselves and the formulation related to consecutive dilutions of their initial solutions before adding to the cultures, 2 µL solutions of the drugs to be tested in medium with 5% FBS, in normal saline and in saline with 2,3 mM CaCl2 were added to the cultures. In control cultures, 2 µL of medium with 5% FBS, normal saline and saline with 2,3 mM CaCl2 were added as solvent controls (negative controls). […] Therefore an average of negative controls was calculated. […] Therefore an average of positive controls was calculated (for each antibiotic).
# [1] = cytotoxic drug alone 10^-7 mol/L, average of positive controls in medium with 5% FBS, normal saline and saline with 2,3 mM CaCl2, hydrochloride
# [2] = cytotoxic drug alone 10^-8 mol/L, average of positive controls in medium with 5% FBS, normal saline and saline with 2,3 mM CaCl2, hydrochloride
# [3] = cytotoxic drug alone 10^-9 mol/L, average of positive controls in medium with 5% FBS, normal saline and saline with 2,3 mM CaCl2, hydrochloride
# [4] = Homo sapiens, MDA-MB-231, 48 h, compound alone, final concentration 10^-7 mol/L, working solutions in MEM with 5% FBS, two days, read-out: cell growth inhibition
# [5] = Homo sapiens, MDA-MB-231, 48 h, compound alone, final concentration 10^-8 mol/L, working solutions in MEM with 5% FBS, two days, read-out: cell growth inhibition
# [6] = Homo sapiens, MDA-MB-231, 48 h, compound alone, final concentration 10^-9 mol/L, working solutions in MEM with 5% FBS, two days, read-out: cell growth inhibition
# [7] = compound alone, final concentration 10^-7 mol/L, working solutions in MEM with 5% FBS, two days
# [8] = compound alone, final concentration 10^-8 mol/L, working solutions in MEM with 5% FBS, two days
# [9] = compound alone, final concentration 10^-9 mol/L, working solutions in MEM with 5% FBS, two days
# [10] = Homo sapiens, MDA-MB-231, compound alone 10^-7 mol/L, in B (normal saline), read-out: cell growth inhibition
# [11] = Homo sapiens, MDA-MB-231, compound alone 10^-7 mol/L, read-out: Cell growth inhibition in A compared to that in B was increased by
# [12] = Homo sapiens, MDA-MB-231, compound alone 10^-8 mol/L, in A (saline with […] CaCl2), read-out: cell growth inhibition
# [13] = Homo sapiens, MDA-MB-231, compound alone 10^-8 mol/L, in B (normal saline), read-out: cell growth inhibition
# [14] = Homo sapiens, MDA-MB-231, compound alone 10^-8 mol/L, read-out: Cell growth inhibition in A compared to that in B was increased by
# [15] = Homo sapiens, MDA-MB-231, compound alone 10^-9 mol/L, in A (saline with […] CaCl2), read-out: cell growth inhibition
# [16] = Homo sapiens, MDA-MB-231, compound alone 10^-9 mol/L, in B (normal saline), read-out: cell growth inhibition
# [17] = Homo sapiens, MDA-MB-231, compound alone 10^-9 mol/L, read-out: Cell growth inhibition in A compared to that in B was increased by
# [18] = compound alone 10^-7 mol/L, in B (normal saline)
# [19] = compound alone 10^-8 mol/L, in B (normal saline)
# [20] = compound alone 10^-9 mol/L, in B (normal saline)
smiles,measurement,setting,value
"COc1cccc2c1C(=O)c1c(O)c3c(c(O)c1C2=O)C[C@@](O)(C(=O)CO)C[C@@H]3O[C@H]1C[C@H](N)[C@H](O)[C@H](C)O1 [Doxorubicin, (8S,10S)-10-[(3-amino-2,3,6-trideoxy-α-L-lyxo-hexopyranosyl)oxy]-8-glycolyl-7,8,9,10-tetrahydro-6,8,11-trihydroxy-1-methoxy-5,12-naphtacenedione hydrochloride, reference compound]",IC50,"Homo sapiens, MDA-MB-231, as concentration of cytotoxic drug, alone or in formulation at molar ratio 1:6, medium with 5% FBS",76 nM
same,inhibition at 0.1 µM,"Homo sapiens, MDA-MB-231, cytotoxic drug 10^-7 mol/L (100 nM), alone or in formulation at molar ratio 1:6, working solutions in medium with 5% FBS, read-out: Cell Growth Inhibition, %",53.6%
same,inhibition at 0.01 µM,"Homo sapiens, MDA-MB-231, cytotoxic drug 10^-8 mol/L, alone or in formulation at molar ratio 1:6, working solutions in medium with 5% FBS, read-out: Cell Growth Inhibition, %",26.4%
same,inhibition at 0.001 µM,"Homo sapiens, MDA-MB-231, cytotoxic drug 10^-9 mol/L, alone or in formulation at molar ratio 1:6, working solutions in medium with 5% FBS, read-out: Cell Growth Inhibition, %",13.8%
same,inhibition at 0.1 µM,"Homo sapiens, MDA-MB-231, cytotoxic drug alone 10^-7 mol/L, average of positive controls in medium with 5% FBS, normal saline and saline with 2,3 mM CaCl2, read-out: Cell Growth Inhibition, %",55.4%
same,inhibition at 0.01 µM,"Homo sapiens, MDA-MB-231, cytotoxic drug alone 10^-8 mol/L, average of positive controls in medium with 5% FBS, normal saline and saline with 2,3 mM CaCl2, read-out: Cell Growth Inhibition, %",29.4%
same,inhibition at 0.001 µM,"Homo sapiens, MDA-MB-231, cytotoxic drug alone 10^-9 mol/L, average of positive controls in medium with 5% FBS, normal saline and saline with 2,3 mM CaCl2, read-out: Cell Growth Inhibition, %",19.4%
same,IC50,"Homo sapiens, MDA-MB-231, cytotoxic drug alone, average of positive controls",62 nM
same,"Tumor Cell Number, × 10^3","cytotoxic drug 10^-7 mol/L (100 nM), alone or in formulation at molar ratio 1:6, working solutions in medium with 5% FBS, hydrochloride",26.2 ± 1.29 × 10^3
same,"Cell Growth Inhibition, %","cytotoxic drug 10^-7 mol/L (100 nM), alone or in formulation at molar ratio 1:6, working solutions in medium with 5% FBS, hydrochloride, 0.1 µM",53.0* %
same,"Tumor Cell Number, × 10^3","cytotoxic drug 10^-7 mol/L (100 nM), alone or in formulation at molar ratio 1:6, working solutions in medium with 5% FBS, listed as doxorubicin, hydrochloride",23.6 ± 1.02 × 10^3
same,"Tumor Cell Number, × 10^3","cytotoxic drug 10^-8 mol/L, alone or in formulation at molar ratio 1:6, working solutions in medium with 5% FBS",41.0 ± 1.50 × 10^3
same,"Tumor Cell Number, × 10^3","cytotoxic drug 10^-9 mol/L, alone or in formulation at molar ratio 1:6, working solutions in medium with 5% FBS",48.0 ± 1.85 × 10^3
same,"Cell Growth Inhibition, %",[1],55.3* %
same,"Tumor Cell Number, × 10^3",[1],25.5±0.71 × 10^3 and 25.2±1.56 × 10^3
same,"Cell Growth Inhibition, %",[2],27.3 * %
same,"Tumor Cell Number, × 10^3",[2],40.4±1.65 × 10^3 and 41.0±0.96 × 10^3
same,"Cell Growth Inhibition, %",[3],19.1* %
same,"Tumor Cell Number, × 10^3",[3],46.1±2.07 × 10^3 and 45.6±1.38 × 10^3
same,IC50,"cytotoxic drug alone, average of positive controls, hydrochloride",64 nM
"CCOC(=O)[C@H](CS(=O)(=O)O)NC(=O)/C=C(C)/C=C/C=C(C)/C=C/C1=C(C)CCCC1(C)C [compound I-1b, N-(all-trans-retlnoyl)-L-cysteic acid ethyl ester]",inhibition at 0.1 µM,[4],46.7%
same,inhibition at 0.01 µM,[5],44.2%
same,inhibition at 0.001 µM,[6],39.2%
same,number of viable cells,[7],30.5 ± 1.82 × 10^3
same,number of viable cells,[8],31.9 ± 2.16 × 10^3
same,number of viable cells,[9],34.8 ± 2.41 × 10^3
"CC1=C(/C=C/C(C)=C/C=C/C(C)=C/C(=O)N[C@@H](CS(=O)(=O)O)C(=O)OC(C)C)C(C)(C)CCC1 [compound I-1c, N-(all-trans-retinoyl)-Lwcysteic acid isopropyl ester]",inhibition at 0.01 µM,[5],46.9%
same,inhibition at 0.001 µM,[6],40.6%
same,number of viable cells,[7],28.9 ± 1.52 × 10^3
same,number of viable cells,[8],30.4 ± 1.79 × 10^3
same,number of viable cells,[9],34.0 ± 2.13 × 10^3
"CCCOC(=O)[C@H](CS(=O)(=O)O)NC(=O)/C=C(C)/C=C/C=C(C)/C=C/C1=C(C)CCCC1(C)C [compound I-1d, N-(all-trans-retinoyl)-L-cysteic acid propyl ester]",inhibition at 0.1 µM,[4],54.8%
same,inhibition at 0.01 µM,[5],50.7%
same,inhibition at 0.001 µM,[6],45.2%
same,number of viable cells,[7],24.1 ± 1.46 × 10^3
same,number of viable cells,[8],26.3 ± 1.67 × 10^3
same,number of viable cells,[9],29.2 ± 1.89 × 10^3
"CCCCOC(=O)[C@H](CS(=O)(=O)O)NC(=O)/C=C(C)/C=C/C=C(C)/C=C/C1=C(C)CCCC1(C)C [compound I-1e, N-(all-trans-retinoyl)-L-cysteic acid butyl ester]",inhibition at 0.1 µM,[4],53.5%
same,inhibition at 0.01 µM,[5],49.2%
same,inhibition at 0.001 µM,[6],44.7%
same,number of viable cells,[7],24.8 ± 1.34 × 10^3
same,number of viable cells,[8],27.1 ± 1.75 × 10^3
same,number of viable cells,[9],29.5 ± 2.18 × 10^3
"CNC(=O)[C@H](CS(=O)(=O)O)NC(=O)/C=C(C)/C=C/C=C(C)/C=C/C1=C(C)CCCC1(C)C [compound I-1g, N-(all-trans-retinoyl)-L-cysteic acid methylamide]",inhibition at 0.01 µM,[5],35.9%
same,inhibition at 0.001 µM,[6],27.8%
same,inhibition at 0.1 µM,[10],22.8%
same,inhibition at 0.1 µM,[11],26.5%
same,inhibition at 0.01 µM,[12],36.7%
same,inhibition at 0.01 µM,[13],14.2%
same,inhibition at 0.01 µM,[14],26.3%
same,inhibition at 0.001 µM,[15],28.5%
same,inhibition at 0.001 µM,[16],4.2%
same,inhibition at 0.001 µM,[17],25.4%
same,number of viable cells,[18],43.1 ± 2.03 × 10^3
same,number of viable cells,[19],47.9 ± 2.86 × 10^3
same,number of viable cells,[20],53.5 ± 3.21 × 10^3
same,cell growth inhibition reached when increasing the concentration,"compound alone (sodium salt), concentration range 10^-9 to 10^-7 M",~43%
same,number of viable cells,[7],32.1 ± 1.72 × 10^3
same,number of viable cells,[8],36.2 ± 1.95 × 10^3
same,number of viable cells,[9],40.8 ± 2.14 × 10^3
same,"cell growth inhibition reached on increase of the concentration, in (B)",,~23%
"CC1=C(/C=C/C(C)=C/C=C/C(C)=C\C(=O)N[C@@H](CS(=O)(=O)O)C(=O)O)C(C)(C)CCC1 [compound II-1, N-(13-cis-Retinoyl)-L-cysteic acid]",inhibition at 0.1 µM,"Homo sapiens, MDA-MB-231, compound alone 10^-7 mol/L, in A (saline with […] CaCl2), read-out: cell growth inhibition",42.7%
same,inhibition at 0.1 µM,[10],32.2%
same,inhibition at 0.1 µM,[11],15.5%
same,inhibition at 0.01 µM,[12],41.3%
same,inhibition at 0.01 µM,[13],30.6%
same,inhibition at 0.01 µM,[14],15.4%
same,inhibition at 0.001 µM,[15],37.4%
same,inhibition at 0.001 µM,[16],25.5%
same,inhibition at 0.001 µM,[17],16%
same,number of viable cells,[18],38.6 ± 1.25 × 10^3
same,number of viable cells,[19],39.5 ± 1.46 × 10^3
same,number of viable cells,[20],42.4 ± 1.63 × 10^3
same,"cell growth inhibition reached on increase of the concentration, in (B)",,~32%
"CCOC(=O)[C@H](CS(=O)(=O)O)NC(=O)\C=C(C)/C=C/C=C(C)/C=C/C1=C(C)CCCC1(C)C [compound II-1b, N-(13-cis-retinoyl)-L-cysteic acid ethyl ester]",inhibition at 0.1 µM,[4],49.1%
same,inhibition at 0.01 µM,[5],46.3%
same,inhibition at 0.001 µM,[6],41.4%
same,number of viable cells,[7],29.8 ± 1.70 × 10^3
same,number of viable cells,[8],31.4 ± 1.94 × 10^3
same,number of viable cells,[9],34.3 ± 1.88 × 10^3
